Results reported in patent US20040186066A1, “Method of treatment with nelfinavir” (AGOURON PHARMACEUTICALS, INC., priority 2003, published 2004).
Counter-ions that a name gives are not always drawn. Like-named read-outs stand apart in the source and are kept apart here.

Assays:
[1] = Example 1: phase I crossover food-effect study, single-dose pharmacokinetics of nelfinavir 250 mg tablets (total kilocalories and fat); assay type: in vivo, human (normal healthy volunteers); details: for half-life / AUC / Cmax / Tmax / AUC(0-t) / AUC(0-inf): human, plasma, 1250 mg; for AUC: read-out: AUC12; for AUC(0-t): read-out: AUC(0-tlqc), least-squares mean; for AUC(0-inf): read-out: AUC(0-∞) (AUCinf), least-squares mean
Description: A phase I, randomized, open-label crossover study to evaluate the impact of total kilocalories and fat content on single-dose pharmacokinetic parameters of the nelfinavir 250 mg tablet formulation in normal healthy volunteers was performed. Healthy volunteers entered the study and received the following treatment in random order at least 1 week apart: 1) 5×250 mg nelfinavir tablets, fasted 2) 5×250 mg nelfinavir tablets (breakfast meal 1, 125 Kcal/20% fat=low cal/low fat) 3) 5×250 mg nelfinavir tablets (breakfast meal 2, 500 Kcal/20% fat=medium cal/low fat) 4) 5×250 mg nelfinavir tablets (breakfast meal 3, 1000 Kcal/50% fat=high cal/high fat). Plasma concentrations of nelfinavir and its active hydroxy-t-butylamide metabolite (M8) were measured by validated high performance liquid chromatography (HPLC) methods. Pharmacokinetic parameters were determined from plasma concentration-time data using standard methods. Nelfinavir was administered as five 250-mg tablets with 240 mL of water. All subjects received a standardized snack the evening they were admitted to the in-patient facility. For the fasting evaluation, subjects were required to complete an overnight fast of at least 10 hours prior to dosing in the morning. For the fed pharmacokinetic evaluations, subjects were required to complete an overnight fast of at least 10 hours, prior to receiving the protocol-specific standardized breakfast meal (that is, Meal 1, Meal 2, or Meal 3). Subjects were given 30 minutes to complete their standardized breakfast meal. Dosing was performed in the morning, immediately following the subject's completion of the standardized breakfast meal and after the subject's pre-dose pharmacokinetic specimen had been collected. Subjects could not ingest water 1 hour prior to or 1 hour after dosing. A standardized lunch was given at least 4 hours after the morning dose and a standardized dinner was given at least 10 hours after the morning dose. For pharmacokinetic sampling, blood samples, 5 mL each, were collected into heparinized vacuum tubes (green top tubes) via an indwelling catheter or direct venipuncture. The actual time of each collection was recorded on the source document. The timing of each sample collection was as follows: predose and at 0.5, 1, 2, 3, 4, 6, 8, and 12 hours postdose on Days 1, 8,15, and 22. Pharmacokinetic parameter values were calculated using WinNonlin Pro Version 2.1. Individual nelfinavir plasma concentrations were used to predict steady-state plasma concentrations during BID administration with meals of various Kcal content. WinNonlin Pro Version 3.2 noncompartmental superposition was used for this simulation. Predicted steady-state Cmax and Cmin values were compared.

[2] = single dose; cited from earlier work
[3] = po, nelfinavir, 1250 mg single oral dose with high calorie/high fat meal (1000 Kcal/50% fat)
[4] = po, nelfinavir, 1250 mg single oral dose with low calorie/low fat meal (125 Kcal/20% fat)
[5] = po, nelfinavir, 1250 mg single oral dose with moderate calorie/low fat meal (500 Kcal/20% fat)
[6] = po, nelfinavir, 1250 mg single oral dose, fasting (reference)
[7] = nelfinavir, 125 kcal/20% fat relative to fasting
[8] = nelfinavir, 500 kcal/20% fat relative to fasting
[9] = nelfinavir, 1000 kcal/50% fat relative to fasting
[10] = nelfinavir, high calorie/high fat meal (1000 Kcal/50% fat) vs fasting
[11] = nelfinavir, low calorie/low fat meal (125 Kcal/20% fat) vs fasting
[12] = nelfinavir, moderate calorie/low fat meal (500 Kcal/20% fat) vs fasting

half-life ([1]; oral, nelfinavir, across fasting and the three meals, read-out: half-life (t½), range of mean values): 216 to 336 min | AUC ([1]; oral, nelfinavir, food intake 125 kcal/20% fat): 20000 ng·h/mL | Cmax ([1]; oral, nelfinavir, food intake 125 kcal/20% fat, read-out: Cmax (Table 5)): 3160 ng/mL | AUC ([1]; oral, nelfinavir, food intake 500 kcal/20% fat): 25500 ng·h/mL | Cmax ([1]; oral, nelfinavir, food intake 500 kcal/20% fat, read-out: Cmax (Table 5)): 3670 ng/mL | AUC ([1]; oral, nelfinavir, food intake 1000 kcal/50% fat): 38900 ng·h/mL | Cmax ([1]; oral, nelfinavir, food intake 1000 kcal/50% fat, read-out: Cmax (Table 5)): 5200 ng/mL | Tmax ([1]; oral, nelfinavir, high calorie meal, read-out: mean tmax longer relative to fasting subjects): ~2 h | Tmax ([1]; oral, nelfinavir, low calorie meal, read-out: mean tmax longer relative to fasting subjects): ~1 h | Tmax ([1]; oral, nelfinavir, moderate calorie meal, read-out: mean tmax longer relative to fasting subjects): ~1.5 h | Cmax ([1]; po, nelfinavir in plasma, 1250 mg single oral dose with high calorie/high fat meal (1000 Kcal/50% fat), read-out: Cmax, least-squares mean): 5200 ng/mL | Cmax ([1]; po, nelfinavir in plasma, 1250 mg single oral dose with low calorie/low fat meal (125 Kcal/20% fat), read-out: Cmax, least-squares mean): 3160 ng/mL | Cmax ([1]; po, nelfinavir in plasma, 1250 mg single oral dose with moderate calorie/low fat meal (500 Kcal/20% fat), read-out: Cmax, least-squares mean): 3670 ng/mL | Cmax ([1]; po, nelfinavir in plasma, 1250 mg single oral dose, fasting (reference), read-out: Cmax, least-squares mean): 1570 ng/mL | AUC(0-t) [1, 3]: 38900 ng·h/mL | AUC(0-inf) [1, 3]: 55300 ng·h/mL | half-life ([1]; po, nelfinavir, 1250 mg single oral dose with high calorie/high fat meal (1000 Kcal/50% fat), read-out: t1/2 (terminal half-life), least-squares mean (converted)): 338 min | Tmax ([1]; po, nelfinavir, 1250 mg single oral dose with high calorie/high fat meal (1000 Kcal/50% fat), read-out: tmax, least-squares mean): 3.98 h | AUC(0-t) [1, 4]: 20000 ng·h/mL | AUC(0-inf) [1, 4]: 23100 ng·h/mL | half-life ([1]; po, nelfinavir, 1250 mg single oral dose with low calorie/low fat meal (125 Kcal/20% fat), read-out: t1/2 (terminal half-life), least-squares mean (converted)): 215 min | Tmax ([1]; po, nelfinavir, 1250 mg single oral dose with low calorie/low fat meal (125 Kcal/20% fat), read-out: tmax, least-squares mean): 3.02 h | AUC(0-t) [1, 5]: 25500 ng·h/mL | AUC(0-inf) [1, 5]: 33400 ng·h/mL | half-life ([1]; po, nelfinavir, 1250 mg single oral dose with moderate calorie/low fat meal (500 Kcal/20% fat), read-out: t1/2 (terminal half-life), least-squares mean (converted)): 286 min | Tmax ([1]; po, nelfinavir, 1250 mg single oral dose with moderate calorie/low fat meal (500 Kcal/20% fat), read-out: tmax, least-squares mean): 3.87 h | AUC(0-t) [1, 6]: 9040 ng·h/mL | AUC(0-inf) [1, 6]: 10600 ng·h/mL | half-life ([1]; po, nelfinavir, 1250 mg single oral dose, fasting (reference), read-out: t1/2 (terminal half-life), least-squares mean (converted)): 246 min | Tmax ([1]; po, nelfinavir, 1250 mg single oral dose, fasting (reference), read-out: tmax, least-squares mean): 2.18 h | AUC ([1]; po, nelfinavir, 1250 mg single oral dose, fasting): 9040 ng·h/mL | Cmax ([1]; po, nelfinavir, 1250 mg single oral dose, fasting, read-out: Cmax (Table 5)): 1570 ng/mL | AUC(0-∞) (AUCinf), least-squares mean ([1]; nelfinavir, 1250 mg single oral dose with high calorie/high fat meal (1000 Kcal/50% fat)): 55.3 µg·h/mL | AUC(0-∞) (AUCinf), least-squares mean ([1]; nelfinavir, 1250 mg single oral dose with low calorie/low fat meal (125 Kcal/20% fat)): 23.1 µg·h/mL | AUC(0-∞) (AUCinf), least-squares mean ([1]; nelfinavir, 1250 mg single oral dose with moderate calorie/low fat meal (500 Kcal/20% fat)): 33.4 µg·h/mL | C12 (concentration at 12 hours postdose), mean ([1]; nelfinavir, 1250 mg single oral dose, 125 Kcal/20% fat): 0.65 µg/mL | C12 (concentration at 12 hours postdose), mean ([1]; nelfinavir, 1250 mg single oral dose, 500 Kcal/20% fat): 1.19 µg/mL | C12 (concentration at 12 hours postdose), mean ([1]; nelfinavir, 1250 mg single oral dose, 1000 Kcal/50% fat): 2.07 µg/mL | C12 (concentration at 12 hours postdose), mean ([1]; nelfinavir, 1250 mg single oral dose, fasting): 0.41 µg/mL | AUC12 (×fasting) [1, 7]: 2.2 X | AUCinf (×fasting) [1, 7]: 2.2 X | Cmax (×fasting) [1, 7]: 2.0 X | AUC12 (×fasting) [1, 8]: 2.8 X | AUCinf (×fasting) [1, 8]: 3.1 X | Cmax (×fasting) [1, 8]: 2.3 X | AUC12 (×fasting) [1, 9]: 4.3 X | AUCinf (×fasting) [1, 9]: 5.2 X | Cmax (×fasting) [1, 9]: 3.3 X | mean Cmax higher relative to fasting subjects ([1]; nelfinavir, high calorie meal): 3.3 fold | AUC(0-tlqc) ratio (100% × test/reference) [1, 10]: 430% | AUC(0-∞) ratio (100% × test/reference) [1, 10]: 520% | Cmax ratio (100% × test/reference) [1, 10]: 331% | t1/2 ratio (100% × test/reference) [1, 10]: 139% | tmax ratio (100% × test/reference) [1, 10]: 183% | mean Cmax higher relative to fasting subjects ([1]; nelfinavir, low calorie meal): 2 fold | AUC(0-tlqc) ratio (100% × test/reference) [1, 11]: 221% | AUC(0-∞) ratio (100% × test/reference) [1, 11]: 218% | Cmax ratio (100% × test/reference) [1, 11]: 201% | t1/2 ratio (100% × test/reference) [1, 11]: 87.5% | tmax ratio (100% × test/reference) [1, 11]: 139% | bioavailability higher relative to fasting subjects, based on AUC(0-∞) ([1]; nelfinavir, meal 1 (125 Kcal/20% fat)): 2.2 fold | bioavailability higher relative to fasting subjects, based on AUC(0-∞) ([1]; nelfinavir, meal 2 (500 Kcal/20% fat)): 3.1 fold | bioavailability higher relative to fasting subjects, based on AUC(0-∞) ([1]; nelfinavir, meal 3 (1000 Kcal/50% fat)): 5.2 fold | AUC increase over fasting state ([1]; nelfinavir, meals containing 500-1000 kcal and 20-50% fat): 3-5 fold | mean Cmax higher relative to fasting subjects ([1]; nelfinavir, moderate calorie meal): 2.3 fold | AUC(0-tlqc) ratio (100% × test/reference) [1, 12]: 282% | AUC(0-∞) ratio (100% × test/reference) [1, 12]: 314% | Cmax ratio (100% × test/reference) [1, 12]: 234% | t1/2 ratio (100% × test/reference) [1, 12]: 116% | tmax ratio (100% × test/reference) [1, 12]: 178%
Structure (SMILES): Cc1c(O)cccc1C(=O)N[C@@H](CSc1ccccc1)[C@H](O)CN1C[C@H]2CCCC[C@H]2C[C@H]1C(=O)NC(C)(C)C (relative stereo) [nelfinavir, [3S-(3R*, 4aR*, 8aR*, 2′S*, 3′S*)]-2-[2′ hydroxy-3′-phenylthiomethyl-4′-aza-5′-oxo-5′-(2″-methyl-3″-hydroxy-phenyl)pentyl]-decahydroiso-quinoline-3-N-t-butylcarboxamide methanesulfonic acid salt]
C12 values compared with Cmax in fasting subjects ([1]; nelfinavir, dose with the high calorie/high fat meal, FIG. 1): higher than Cmax values in fasting subjects | AUC under fasting conditions as % of AUC with food [2]: 27-50%
